Where “and” joins values, the source holds several entries; their conditions need not be identical. Identical values can stand only once. Marks after values point to notes of the source that are not given here.
Columns and labels:
M-Hela = test: Cytotoxicity assay (Cytell Cell Imaging, DAPI/propidium iodide), cancer cell line; type: cell-based; settings: Homo sapiens, M-HeLa, read-out: IC50 Cancer Cell Line M-Hela
Chang liver cell line = test: Cytotoxicity assay (Cytell Cell Imaging), normal cell line; type: cell-based; settings: Homo sapiens, read-out: IC50 Normal Cell Line Chang Liver
P388 murine leukemia = test: In vivo anti-tumor activity, i.p. implanted leukemia; set-up: species or system BDF1 hybrid male mice; settings: for ILS / MST ± SD: P388; for Survival: day 60
Method: Animals. In vivo experiments were performed using the BDF1 hybrid male mice of 22–24 g weight. The experimental animals were caged in a standard vivarium in 12 h light conditions with free access to food and water. All manipulations with the animals were performed in accordance with the solutions of the Commission on Bioethics of the Institute of Problems of Chemical Physics, Russian Academy of Sciences (IPCP RAS).
Anti-tumor activity. The tumors were transplanted intraperitoneally (i.p.) in accordance with a standard procedure inoculum: 10^6 tumor cells in isotonic solution of NaCl, V = 0.2 cm^3 (leukemia P388). Original compounds were injected intraperitoneally as aqueous solution. Doses from 18 to 83 mg/kg/day and the mode of administration on days 1, 5, and 9 after transplantation were used. In each experiment, a single group of tumor-bearing animals not injected with the compounds served as the control group. Each group consisted of six mice. The animals were observed daily for survival for a minimum of 60 days. The efficacy of the therapy against leukemia (defined as increase in lifespan—ILS) was assessed as the percentage of the median survival time (MST) of the treated group (t) to that of the control group (c): ILS(%) = (MSTt/MSTc) × 100.
Statistics. The experiments were carried out in triplicate. The data are presented in the form X ± SD (mean ± standard deviation). The significance of the differences between the groups was assessed using Student’s t-test. Values of p < 0.05 were considered statistically significant. The data were processed statistically using GraphPad Prism.

[1] = tested on: Acinetobacter calcoaceticus VKPM B-10353; test: Biofilm formation, crystal violet assay; type: cell-based; settings: A. calcoaceticus VKPM B-10353; for Biofilm Formation: control = 100%; for Biofilm formation with respect to control, over the investigated concentrations: 1 × 10^−9–1 × 10^−5 M
Method: (§1) Bacterial strains and cultivation conditions. For the detection of biofilms, formation strains Vibrio aquamarinus DSM 26054 and Acinetobacter calcoaceticus VKPM B-10353 were used. These strains form biofilms, making them useful for studying biofilms.
(§2) The bacterial strains Acinetobacter calcoaceticus VKPM B-10353, E. coli MG1655 (pRecA-lux), and E. coli MG1655 (pSoxS-lux) were cultivated in Luria–Bertani (LB) medium under constant shaking to early exponential phase at 37 °C. Cells were used immediately for stress induction tests. One hundred micrograms of ampicillin per milliliter were added into LB medium at cultivation of E. coli MG1655 (pRecA-lux) and E. coli MG1655 (pSoxS-lux). Strain V. aquamarinus DSM 26054 was grown in LB medium supplemented with 3% NaCl.
(§3) The test compounds were dissolved in DMSO to the concentration of 1 × 10^−2 M. Then, they were diluted with ethanol. The control solutions were analogous dilutions of DMSO in ethanol. The tested compounds were also compared with the standard antibiotic azithromycin. Azithromycin was dissolved in DMSO to the concentration of 5 × 10^−3 M and then diluted with deionized water.
(§4) Test system for evaluation of biofilms production. To quantify the formation of biofilms, the crystal violet assay was used, with some modifications. The necessary concentrations of the test compounds were prepared as described above.
(§5) V. aquamarinus DSM 26054 was cultivated for 24 h in LB medium supplemented with 3% NaCl in the Innova 40R shaker incubator (New Brunswick Scientific, USA) at 25 °C and 200 rpm. A. calcoaceticus VKPM B-10353 was cultivated for 24 h in LB medium in the Innova 40R shaker incubator (New Brunswick Scientific, Enfield, CT, USA) at 30 °C and 200 rpm. Then, the suspensions of the daily culture of V. aquamarinus DSM 26054 and A. calcoaceticus VKPM B-10353 were diluted with LB medium supplemented with 3% NaCl to the density of 1 × 10^8 cells/mL.
(§6) The resulting suspension (180 μL) was added to the wells of a polystyrene microplate (Nuova Aptaca, Canelli, Italy). To some of the wells, 20 μL of the test substances at various concentrations were added. Since solvents used could also influence the biofilm formation, 20 μL of the appropriate solvent was added to the other part of the wells at same dilutions (control). Six replicates were done for each treatment and control. The microplate was covered with a lid and wrapped with Parafilm (Bemis Company, Inc., Oshkosh, WI, USA).
(§7) After incubation at 25 °C for 72 h, biofilms were stained. The contents in the wells were removed by means of a dispenser. The wells were then carefully washed three times with 250 μL of sterile saline. The microplates were shaken to remove all non-adherent bacteria. Biofilms were fixed with 200 μL of 96% ethanol for 15 min. After the microplates had dried in air, 200 μL of 0.5% crystal violet was introduced into the wells. After 10 min, the dye was removed. The excess dye was removed by washing with water three times. After the microplates were air-dried, the dye in the wells bound to biofilms was dissolved with 200 μL of 96% ethanol. The extraction level (absorption) of crystal violet by ethanol was measured after 60 minutes at a wavelength of 570 nm using a FLUOstar Omega microplate reader (BMG Labtech, Offenburg, Germany) in optical density units (OD570). The intensity of biofilm formation directly corresponds to the intensity of staining of the contents of the wells with the dye. Biofilm formation was determined by the difference between the mean OD readings obtained in the presence of compounds and the control.
(§8) Each experiment was performed in triplicate. The values were expressed as mean + SD. Student’s t-test was used to compare these values. Differences were considered statistically significant at p < 0.05.

[2] = tested on: Vibrio aquamarinus DSM 26054; test: Biofilm formation, crystal violet assay; type: cell-based; settings: V. aquamarinus DSM 26054, control = 100%
Method: as §1, §2, §3, §4, §5, §6, §7, §8

[3] = tested on: Escherichia coli MG1655 (pRecA-lux); test: Genotoxicity, bacterial lux-biosensor; type: cell-based
Excerpt: (§9) E. coli MG1655 (pRecA-lux) was used for the evaluation of the genotoxicity of the synthesized compounds. The biosensor with the PrecA promotor fixes the presence of the factors causing damage of DNA in a cell. The biosensor E. coli MG1655 (pSoxS-lux) was used for the evaluation of prooxidant activity. The biosensor with the PsoxS promoter fixes the production of superoxide anion and NO [75]. Bioluminescent strains were obtained by the transformation of E. coli MG1655 by hybrid plasmids pRecA-lux, pSoxS-lux. The gene cassette luxCDABE Photorhabdus luminescens under the control PrecA promoters was used in this biosensor. This plasmid was created on the basis of pBR322 and contained a selective marker of ampicillin resistance (Amp gene). The strains were kindly furnished by Manukhov I.V., Federal State Unitary Enterprise “GosNIIGenetika”).
as §2
(§10) Biosensors assay procedure. The detailed protocol of toxicity testing by means of a bacterial lux-biosensors is described in the article.
(§11) Calculation. The criterion of toxic influence was bioluminescence intensity change of the test object in the researched sample in comparison with the control sample.
(§12) The induction factor (I) was defined as the relation of luminescence intensity of a lux-biosensor suspension containing tested sample (Lc) to the luminescence intensity of a lux-biosensor control suspension (Lk): I = Lc/Lk.
If at significant differences from control induction factor values were ≤2, the detected genotoxic effect was evaluated as “weak”, if they were in the range from 2 to 10 as “medium”, and above 10 as “strong”. All the experiments were carried out three times independently.
(§13) Difference reliability of bioluminescence in experiment from control value was estimated by t-criterion with the help of Excel software. The conclusions about sample toxicity were made at p < 0.05.

[4] = tested on: E. coli MG1655 (pSoxS-lux); test: Prooxidant activity, bacterial lux-biosensor; type: cell-based, Escherichia coli
Excerpt: as §9, §2, §10, §11, §12, §13

[5] = 18 mg/kg/day i.p., days 1, 5, 9
[6] = 26 mg/kg/day i.p., days 1, 5, 9
[7] = 40 mg/kg/day i.p., days 1, 5, 9
[8] = 55 mg/kg/day i.p., days 1, 5, 9
[9] = 83 mg/kg/day i.p., days 1, 5, 9

`NC(=O)N1CCCC1c1cc2c(cc1O)OCO2` (centres unmarked) [5a, 2-(6-Hydroxybenzo[d][1,3]dioxol-5-yl)pyrrolidine-1-carboxamide] showed a melting point of 206 to 207 °C, an IC50 (M-Hela) of over 100 µM and an IC50 (Chang liver cell line) of over 100 µM.

In the case of `Cc1cc(O)c(C2CCCN2C(=O)Nc2ccc(Br)cc2)c(=O)o1` (centres unmarked) [7d, N-(4-Bromophenyl)-2-(4-hydroxy-6-methyl-2-oxo-2H-pyran-3-yl)pyrrolidine-1-carboxamide], the IC50 (M-Hela) is reported as over 100 µM and the IC50 (Chang liver cell line) is reported as over 100 µM.

With `CN(C)CCNC(=O)N1CCCC1c1c(O)c2ccccc2oc1=O.O=C(O)C(F)(F)F` (centres unmarked) [8h, 2-(2-(4-Hydroxy-2-oxo-2H-chromen-3-yl)pyrrolidine-1-carboxamido)-N,N-dimethylethan-1-aminium 2,2,2-trifluoroacetate] the ILS (P388 murine leukemia; [5]) was 93%, the “MST ± SD” value (P388 murine leukemia; [5]) was 19.3 ± 8.1 days and the Survival (P388 murine leukemia; 18 mg/kg/day) was 17%. The ILS (P388 murine leukemia; [6]) was 107%, the “MST ± SD” value (P388 murine leukemia; [6]) was 20.7 ± 8.0 days and the Survival (P388 murine leukemia; 26 mg/kg/day) was 17%. For the same molecule, the ILS (P388 murine leukemia; [7]) was 32%, the “MST ± SD” value (P388 murine leukemia; [7]) was 13.2 ± 1.6 days and the Survival (P388 murine leukemia; 40 mg/kg/day) was 0%. For the same molecule, the ILS (P388 murine leukemia; [8]) was 98%, the “MST ± SD” value (P388 murine leukemia; [8]) was 19.8 ± 8.1 days and the Survival (P388 murine leukemia; 55 mg/kg/day) was 17%. For the same molecule, the ILS (P388 murine leukemia; [9]) was 162%, the “MST ± SD” value (P388 murine leukemia; [9]) was 26.2 ± 10.7 days and the Survival (P388 murine leukemia; 83 mg/kg/day) was 33%. The “antitumor (anti-leukemic) activity, in words” value (P388 murine leukemia; P388, dose range 18–83 mg/kg/day i.p., days 1, 5, 9) was “pronounced anti-leukemic activity”, the IC50 (M-Hela) was over 100 µM and the IC50 (Chang liver cell line) was over 100 µM.

For `CC[C@H]1OC(=O)[C@H](C)[C@@H](O[C@H]2C[C@@](C)(OC)[C@@H](O)[C@H](C)O2)[C@H](C)[C@@H](O[C@@H]2O[C@H](C)C[C@H](N(C)C)[C@H]2O)[C@](C)(O)C[C@@H](C)CN(C)[C@H](C)[C@@H](O)[C@]1(C)O` [Azithromycin, reference compound], the “Biofilm Formation” value ([1]; 1 × 10^−5 M) was 101.79%, the “Biofilm Formation” value ([1]; 1 × 10^−6 M) was 106.07% and the “Biofilm Formation” value ([1]; 1 × 10^−7 M) was 105.71%. For the same molecule, the “Biofilm Formation” value ([1]; 1 × 10^−8 M) was 96.07%, the “Biofilm Formation” value ([1]; 1 × 10^−9 M) was 95.00% and the “Biofilm formation with respect to control, over the investigated concentrations” value [1] was “not detected”. The “Biofilm Formation” value ([2]; 1 × 10^−5 M) was 81.5% and 81.50 * %, the “Biofilm Formation” value ([2]; 1 × 10^−6 M) was 103.80% and the “Biofilm Formation” value ([2]; 1 × 10^−7 M) was 99.39%. For the same molecule, the “Biofilm Formation” value ([2]; 1 × 10^−8 M) was 102.43% and the “Biofilm Formation” value ([2]; 1 × 10^−9 M) was 103.42%.

In the case of `O=[N+]([O-])c1c(Cl)cc2c(no[n+]2[O-])c1Nc1cccc(O)c1` [compound 4, 6-Chloro-4-((3-hydroxyphenyl)amino)-5-nitrobenzo[c][1,2,5]oxadiazole 1-oxide], the “DNA-damaging property, in words” value ([3]; 10^−9–10^−5 M, with and without S9) is reported as “do not belong to the class of DNA-damaging substances”, the “Genotoxicity (induction factor, I)” value ([3]; with metabolic activation (+S9), 10^−5 M) is reported as 1.11 ± 0.01 and the “Genotoxicity (induction factor, I)” value ([3]; with metabolic activation (+S9), 10^−6 M) is reported as 1.28 ± 0.04. For the same molecule, the “Genotoxicity (induction factor, I)” value ([3]; with metabolic activation (+S9), 10^−7 M) was 1.18 ± 0.01, the “Genotoxicity (induction factor, I)” value ([3]; with metabolic activation (+S9), 10^−8 M) was 1.11 ± 0.02 and the “Genotoxicity (induction factor, I)” value ([3]; with metabolic activation (+S9), 10^−9 M) was 1.19 ± 0.01. The “Genotoxicity (induction factor, I)” value ([3]; without metabolic activation (-S9), 10^−5 M) was 1.10 ± 0.00, the “Genotoxicity (induction factor, I)” value ([3]; without metabolic activation (-S9), 10^−6 M) was 1.27 ± 0.01 and the “Genotoxicity (induction factor, I)” value ([3]; without metabolic activation (-S9), 10^−7 M) was 1.14 ± 0.02. For the same molecule, the “Genotoxicity (induction factor, I)” value ([3]; without metabolic activation (-S9), 10^−8 M) was 1.27 ± 0.07, the “Genotoxicity (induction factor, I)” value ([3]; without metabolic activation (-S9), 10^−9 M) was 1.21 ± 0.04 and the “Prooxidant activity (induction factor)” value ([4]; 10^−5 M) was 1.64 ± 0.04. The “Prooxidant activity (induction factor)” value ([4]; 10^−6 M) was 1.54 ± 0.07, the “Prooxidant activity (induction factor)” value ([4]; 10^−7 M) was 1.74 ± 0.14 and the “Prooxidant activity (induction factor)” value ([4]; 10^−8 M) was 2.08 ± 0.05. The “Prooxidant activity (induction factor)” value ([4]; 10^−9 M) was 1.85 ± 0.10, the “effect of superoxide-anion radical or NO level increase, in words” value ([4]; 10^−9–10^−8 M and 10^−7–10^−5 M) was “weak effect” and the “Biofilm Formation” value ([1]; 1 × 10^−5 M) was 149.22* %. For the same molecule, the “Biofilm Formation” value ([1]; 1 × 10^−6 M) was 97.99%, the “Biofilm Formation” value ([1]; 1 × 10^−7 M) was 78.63 * % and the “Biofilm Formation” value ([1]; 1 × 10^−8 M) was 62.12 * %. For the same molecule, the “Biofilm Formation” value ([1]; 1 × 10^−9 M) was 86.67 * %, the “Biofilm formation with respect to control, over the investigated concentrations” value [1] was “both suppressing and stimulating” and the “Biofilm Formation” value ([2]; 1 × 10^−5 M) was 96.57%. For the same molecule, the “Biofilm Formation” value ([2]; 1 × 10^−6 M) was 43.56 * %, the “Biofilm Formation” value ([2]; 1 × 10^−7 M) was 11.34 * % and the “Biofilm Formation” value ([2]; 1 × 10^−8 M) was 9.31 * %. For the same molecule, the “Biofilm Formation” value ([2]; 1 × 10^−9 M) was 66.58%.
